Test results as given in publication PMC7235904, “Is Blood a Good Indicator for Detecting Antimicrobials in Meat? Evidence for the Development of In Vivo Surveillance Methods” (Antibiotics, 2020).
“Also recorded” adds a separate entry of the source.

Assay: Relationship between concentrations detected in paired blood and muscle samples
Assay type: in vivo, pigs
Details: paired pig blood and muscle samples
Experimental: After administration, animals were slaughtered at preset intervals within the withdrawal period in order to obtain samples containing different antimicrobial concentrations above and below the MRLs for muscle. Figure S1 indicates the slaughter days and the withdrawal periods set by the manufacturer for each antimicrobial compound administered. Between one and three piglets were slaughtered on the same day post-administration. The day of slaughter was calculated from the first day after the last antimicrobial treatment dose. […] Apart from samples containing antimicrobial compounds administered in vivo, and as a part of the sample bank, 15 of the 93 piglets were slaughtered after the acclimatization period and before treatment onset. Animals were stunned and slaughtered following the guidelines established by European Council Regulation (EC) No. 1099/2009 [39] regarding the protection of animals at the time of slaughter or killing. A penetrative captive bolt gun was used to stun the pigs, positioning it firmly against the skin, in the middle of the forehead, 2 cm above the line of the eyes, aiming towards the tail. […]
Data were analyzed and submitted to comparison of averages via ANOVA, followed by a post-hoc Tukey test and t-tests with GraphPad PRISM. […]

## COc1ccc(NS(=O)(=O)c2ccc(N)cc2)nn1 [Sulfamethoxypyridazine, sulfamethoxypyridazine]
  Concentration in blood compared to muscle: three times higher in blood; also recorded: around three times higher
